This is an account of results in ChEMBL document CHEMBL5543155, “Design, Synthesis, and Biological Evaluation of β-Trifluoroethoxydimethyl Selenides as Potent Antiosteoporosis Agents” (J Med Chem, 2024).

The source made the active and inactive calls. The calls are words filed in the database; no cut-off is given here.

Data set [1] concerns RAW264.7. Kind of data set: Inhibition of RANKL-induced osteoclast differentiation in mouse RAW264.7 cells at 5 uM incubated for 4 days with media replacement for every 2 days by TRAP-staining based light microscopic analysis. The format is functional, cell-based. Conditions: time 4.0 day.
Data set [2] relates to RAW264.7. Kind of data set: Cytotoxicity against mouse RAW264.7 cells assessed as cell destruction at 5 uM incubated for 48 hrs by MTT assay. Format: toxicity, cell-based. Conditions: raw264.7, 48 h.

With `COc1ccc(NC(=O)C([Se]c2ccccc2)C(C)(C)OCC(F)(F)F)cc1` (configuration not stated), in the data set on RAW264.7 [1], the inhibition entry was “Active”. Moreover, the Activity entry with RAW264.7 [2] is recorded as “Non-Toxic”.

Take `CC(C)(OCC(F)(F)F)C([Se]c1cccc(Br)c1)C(=O)Nc1ccccc1` (configuration not stated): the inhibition entry in the data set with RAW264.7 [1] was “Active”. In addition, in the data set on RAW264.7 [2], the Activity result is listed as “Non-Toxic”.

Regarding `Cc1cc(NC(=O)C([Se]c2ccccc2)C(C)(C)OCC(F)(F)F)ccn1` (configuration not stated), in the data set on RAW264.7 [2], the Activity entry is reported as “Non-Toxic”.

Take `COc1ncccc1[Se]C(C(=O)Nc1ccccc1)C(C)(C)OCC(F)(F)F` (configuration not stated): the inhibition entry in the data set on RAW264.7 [1] is “Active”. The Activity result in the data set on RAW264.7 [2] is given as “Non-Toxic”.

With `CC(C)(OCC(F)(F)F)C([Se]c1ccccc1)C(=O)Nc1ccnc(Cl)c1` (configuration not stated), in the data set with RAW264.7 [2], the Activity result was “Non-Toxic”.

As for `COc1ccccc1NC(=O)C([Se]c1ccccc1)C(C)(C)OCC(F)(F)F` (configuration not stated), the inhibition entry in the data set on RAW264.7 [1] was “Active”. For the same compound, the Activity result with RAW264.7 [2] is listed as “Non-Toxic”.

Take `CC(C)(OCC(F)(F)F)C([Se]c1ccccc1F)C(=O)Nc1ccccc1` (configuration not stated): the inhibition entry in the data set with RAW264.7 [1] was “Active”. In addition, the Activity result in the data set with RAW264.7 [2] is listed as “Non-Toxic”.

In the case of `CC(C)(OCC(F)(F)F)C([Se]c1ccccc1)C(=O)NC1CCCCC1` (configuration not stated), the inhibition result with RAW264.7 [1] was “Active”. Further, in the data set with RAW264.7 [2], the Activity entry is “Non-Toxic”.

For the compound `COc1ccc([Se]C(C(=O)Nc2ccncc2)C(C)(C)OCC(F)(F)F)cc1` (configuration not stated), the Activity result in the data set with RAW264.7 [2] is given as “Non-Toxic”.

Regarding `CC(C)(OCC(F)(F)F)C([Se]c1ccccc1)C(=O)Nc1ccc(I)cc1` (configuration not stated), the inhibition entry with RAW264.7 [1] is “Active”. Further, in the data set on RAW264.7 [2], the Activity result is listed as “Non-Toxic”.

`CC(C)(OCC(F)(F)F)C([Se]c1ccccc1)C(=O)Nc1ccc(Br)cc1` (configuration not stated): the inhibition result in the data set with RAW264.7 [1] is “Active”. In the data set on RAW264.7 [2], the Activity entry is listed as “Non-Toxic”.

As for `Cc1ccccc1NC(=O)C([Se]c1ccccc1)C(C)(C)OCC(F)(F)F` (configuration not stated), in the data set with RAW264.7 [1], the inhibition result was “Active”. In addition, the Activity result in the data set with RAW264.7 [2] was “Non-Toxic”.

As for `Cc1cnccc1NC(=O)C([Se]c1ccccc1)C(C)(C)OCC(F)(F)F` (configuration not stated), the Activity entry with RAW264.7 [2] is reported as “Non-Toxic”.

Turning to `CC(C)(OCC(F)(F)F)C([Se]c1cccc(F)c1)C(=O)Nc1ccccc1` (configuration not stated), the inhibition result with RAW264.7 [1] was “Active”. In addition, in the data set with RAW264.7 [2], the Activity result was “Non-Toxic”.

For the compound `CC(C)(OCC(F)(F)F)C([Se]c1ccccc1)C(=O)Nc1ccnc(Br)c1` (configuration not stated), the Activity entry in the data set with RAW264.7 [2] is reported as “Non-Toxic”.

For the compound `Cc1cccc([Se]C(C(=O)Nc2ccccc2)C(C)(C)OCC(F)(F)F)c1` (configuration not stated), in the data set on RAW264.7 [1], the inhibition result is “Active”. Also, the Activity result in the data set with RAW264.7 [2] is on record as “Non-Toxic”.

`CCOC(C)(C)C([Se]c1ccccc1)C(=O)Nc1ccccc1` (configuration not stated): the Activity entry with RAW264.7 [2] is listed as “Non-Toxic”.

As to `CCCC[Se]C(C(=O)Nc1ccccc1)C(C)(C)OCC(F)(F)F` (configuration not stated), in the data set with RAW264.7 [1], the inhibition result is “Active”. Further, in the data set on RAW264.7 [2], the Activity entry is “Non-Toxic”.

As for `CC(C)(OCC(F)(F)F)C([Se]c1ccc(F)cc1)C(=O)Nc1ccccc1` (configuration not stated), the inhibition entry in the data set with RAW264.7 [1] is “Active”. Besides, the Activity entry with RAW264.7 [2] is “Non-Toxic”.

Consider `COc1ccc([Se]C(C(=O)Nc2ccccc2)C(C)(C)OCC(F)(F)F)cc1` (configuration not stated), for which the inhibition result in the data set with RAW264.7 [1] was “Active”. The Activity entry with RAW264.7 [2] is “Non-Toxic”.

`Cc1ccc([Se]C(C(=O)Nc2ccccc2)C(C)(C)OCC(F)(F)F)cc1` (configuration not stated): the inhibition entry with RAW264.7 [1] was “Active”. Moreover, the Activity entry with RAW264.7 [2] is “Non-Toxic”.

On to `CC(C)(OCC(F)(F)F)C([Se]c1ccccc1)C(=O)Nc1ccccc1` (configuration not stated), for which the Activity entry with RAW264.7 [2] is on record as “Non-Toxic”.

As to `CC(C)(OCC(F)(F)F)C([Se]c1ccc2c(c1)OCO2)C(=O)Nc1ccccc1` (configuration not stated), the inhibition entry in the data set with RAW264.7 [1] was “Active”. Further, the Activity entry with RAW264.7 [2] is “Non-Toxic”.

Take `CC(C)(OCC(F)(F)F)C([Se]c1ccccc1Br)C(=O)Nc1ccccc1` (configuration not stated): the inhibition entry in the data set with RAW264.7 [1] is “Active”. Moreover, the Activity entry in the data set with RAW264.7 [2] was “Non-Toxic”.

For the compound `CC(C)(OCC(F)(F)F)C([Se]c1ccc(F)cc1)C(=O)Nc1ccncc1` (configuration not stated), in the data set with RAW264.7 [2], the Activity result is “Non-Toxic”.

Turning to `CC(C)(OCC(F)(F)F)C([Se]c1ccc(Br)cc1)C(=O)Nc1ccccc1` (configuration not stated), in the data set with RAW264.7 [1], the inhibition entry was “Active”. Moreover, the Activity entry in the data set with RAW264.7 [2] is reported as “Non-Toxic”.

As for `CC(C)(OCC(F)(F)F)C([Se]c1ccccc1)C(=O)Nc1cnc2ccccc2c1` (configuration not stated), in the data set on RAW264.7 [1], the inhibition result is “Active”. Further, the Activity result with RAW264.7 [2] is reported as “Non-Toxic”.

`CC(C)(OCC(F)(F)F)C([Se]c1ccccc1)C(=O)Nc1cccc(Cl)c1` (configuration not stated): the inhibition entry with RAW264.7 [1] was “Active”. The Activity result with RAW264.7 [2] is listed as “Non-Toxic”.

For `CC(C)(OCC(F)(F)F)C([Se]c1ccccc1)C(=O)Nc1ccnc(F)c1` (configuration not stated), the Activity entry with RAW264.7 [2] is “Non-Toxic”.

Turning to `COc1ccccc1[Se]C(C(=O)Nc1ccccc1)C(C)(C)OCC(F)(F)F` (configuration not stated), the inhibition result in the data set on RAW264.7 [1] is “Active”. Further, in the data set with RAW264.7 [2], the Activity entry is “Non-Toxic”.

As for `Cc1ccccc1[Se]C(C(=O)Nc1ccccc1)C(C)(C)OCC(F)(F)F` (configuration not stated), in the data set on RAW264.7 [2], the Activity entry is “Non-Toxic”.

As to `COc1cc(NC(=O)C([Se]c2ccccc2)C(C)(C)OCC(F)(F)F)ccn1` (configuration not stated), the Activity result in the data set on RAW264.7 [2] is “Non-Toxic”.

Regarding `CC(C)(OCC(F)(F)F)C([Se]c1ccccc1)C(=O)Nc1ccccn1` (configuration not stated), in the data set with RAW264.7 [2], the Activity entry was “Non-Toxic”.

For `CC(C)(OCC(F)(F)F)C([Se]c1ccccc1)C(=O)Nc1ccccc1F` (configuration not stated), in the data set on RAW264.7 [2], the Activity result is “Non-Toxic”.

Regarding `CC(C)(OCC(F)(F)F)C([Se]c1ccccc1Cl)C(=O)Nc1ccccc1` (configuration not stated), the inhibition entry in the data set with RAW264.7 [1] was “Active”. Moreover, in the data set with RAW264.7 [2], the Activity entry was “Non-Toxic”.

In the case of `CC(C)(OCC(F)(F)F)C([Se]c1ccccc1)C(=O)Nc1cccc(F)c1` (configuration not stated), the inhibition entry in the data set on RAW264.7 [1] was “Active”. Also, the Activity result in the data set on RAW264.7 [2] was “Non-Toxic”.

Turning to `CC(C)(OCC(F)(F)F)C([Se]c1ccccc1)C(=O)Nc1cccnc1` (configuration not stated), in the data set with RAW264.7 [2], the Activity result is on record as “Non-Toxic”.

Regarding `Cc1cc(Cl)ccc1NC(=O)C([Se]c1ccccc1)C(C)(C)OCC(F)(F)F` (configuration not stated), in the data set with RAW264.7 [1], the inhibition entry is “Active”. In the data set with RAW264.7 [2], the Activity result was “Non-Toxic”.
